From patent US9249125B2, “Pyrazole derivatives as p38 MAP inhibitors” (RESPIVERT LIMITED, priority 2012, dated 2016) come the findings set out here.

The subject of data set [1] is LPS-induced IL-8 release in d-U937 cells. In words: LPS-induced IL-8 release in d-U937 cells. The class given is cell-based. To be noted: Homo sapiens, dU937, read-out: LPS Induced Release of Cytokine in d-937 Cells IL-8 IC50. The method, boiled down:
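PMA (100 ng/mL, 48–72 hr)-differentiated U937; cpd 2 hr pre-inc; LPS 0.1 μg/mL (E. coli O111:B4) 4 hr. Supernatant TNFα/IL-8 by sandwich ELISA. IL-8 inhibition per concentration vs vehicle; REC50 from curve fit.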

Data set [2] concerns the target cSrc (Homo sapiens (Human), UniProt P12931). The data set is described as follows: c-Src enzyme inhibition (FRET, Z-LYTE). The format is biochemical. The method, boiled down: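 Z-LYTE FRET kinase assay: enzyme (3000 or 2000 ng/mL stock, respectively) preincubated 2 h at RT with compound (4–0.004 μg/mL stocks), then FRET peptide plus ATP (800 μM stock for c-Src, 60 μM for Syk) added for 1 h. Protease development 1 h; phosphorylation from coumarin/fluorescein emission ratio.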

In data set [3] the test system is Poly I:C-induced ICAM-1 expression in BEAS2B cells. In words: Poly I:C-induced ICAM-1 expression in BEAS2B cells. The format is cell-based. To be noted: Homo sapiens, BEAS-2B, read-out: Poly IC induced ICAM1 in BEAS2B IC50. A digest of the protocol: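 BEAS2B human bronchial epithelial cells pre-incubated with compound for 2 hr, then transfected with 1 μg/mL poly I:C plus Oligofectamine. At 18 hr, surface ICAM-1 measured by cell-based ELISA (HRP, OD450–655). Signal corrected for cell number by crystal violet OD595.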

The target of data set [4] is p38 MAPKα (Homo sapiens (Human), UniProt Q16539). In words: p38 MAPKα enzyme inhibition (FRET, Z-LYTE). The class given is biochemical.
Sequence of p38 MAPKα (Q16539 whole entry): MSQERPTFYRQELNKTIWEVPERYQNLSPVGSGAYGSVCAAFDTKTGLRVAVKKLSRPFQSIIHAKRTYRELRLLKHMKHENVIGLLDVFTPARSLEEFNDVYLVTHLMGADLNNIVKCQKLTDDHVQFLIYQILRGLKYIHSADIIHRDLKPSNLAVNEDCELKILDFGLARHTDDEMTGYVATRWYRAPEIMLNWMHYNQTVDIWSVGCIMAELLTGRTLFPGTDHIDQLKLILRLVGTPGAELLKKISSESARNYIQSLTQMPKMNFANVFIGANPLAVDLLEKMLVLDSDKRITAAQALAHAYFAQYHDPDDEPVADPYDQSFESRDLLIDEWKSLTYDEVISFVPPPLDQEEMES
Data set [5] concerns d-U937 cells. The data set is described as follows: Cell viability: MTT assay. The class given is cell-based, human. To be noted: 1 μg/mL. The method, boiled down: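 Differentiated U937 cells were exposed to compound at 1 or 10 μg/mL either 4 h in 5% FCS RPMI1640 or 24 h in 10% FCS RPMI1640, then given MTT for 1 h, DMSO-solubilised and read at 550 nm. Percent viability loss versus 0.5% DMSO vehicle; apparent gains appear negative.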

The subject of data set [6] is LPS-induced TNFα release in d-U937 cells. In words: LPS-induced TNFα release in d-U937 cells. The class given is cell-based. To be noted: Homo sapiens, dU937, relative to 10 μg/mL BIRB796, read-out: LPS Induced Release of Cytokine in d-937 Cells TNFα REC50. The method, boiled down: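 Sandwich ELISA of culture supernatant gives TNFα and IL-8 levels after a 4 hr challenge with LPS (0.1 μg/mL, E. coli O111:B4). Before stimulation, macrophage-like U937 cells, obtained by 48–72 hr in PMA at 100 ng/mL, sit with compound for 2 hr. Relative EC50 is derived from concentration-response data.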

A word on the IC50: it is the point on the concentration scale where inhibition reaches its midpoint.

Sequence of cSrc (P12931 whole entry, looked up): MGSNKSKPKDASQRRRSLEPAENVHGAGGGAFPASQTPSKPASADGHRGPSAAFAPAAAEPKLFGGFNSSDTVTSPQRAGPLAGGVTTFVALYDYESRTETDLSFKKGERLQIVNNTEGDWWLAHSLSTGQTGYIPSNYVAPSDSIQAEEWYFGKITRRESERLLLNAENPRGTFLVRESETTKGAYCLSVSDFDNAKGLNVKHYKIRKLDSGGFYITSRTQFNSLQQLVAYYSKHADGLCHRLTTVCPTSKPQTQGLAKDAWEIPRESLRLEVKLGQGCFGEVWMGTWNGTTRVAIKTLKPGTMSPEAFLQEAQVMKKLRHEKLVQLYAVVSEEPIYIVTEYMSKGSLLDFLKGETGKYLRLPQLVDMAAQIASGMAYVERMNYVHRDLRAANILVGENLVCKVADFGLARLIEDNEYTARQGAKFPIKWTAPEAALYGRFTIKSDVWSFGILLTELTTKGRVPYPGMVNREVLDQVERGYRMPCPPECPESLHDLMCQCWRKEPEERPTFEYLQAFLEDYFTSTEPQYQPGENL

In the case of `Cc1ccc(-n2nc(C(C)(C)C)cc2NC(=O)Nc2ccc(Oc3ccnc(Nc4cccc5cc[nH]c45)n3)c3ccccc23)cc1` [Example 17], the IC50 was 7.4 nM in data set [1], 138 nM in data set [2], 8.4 nM in data set [3] and 376 nM in data set [4]. Besides, in data set [5], the “MTT Assay Cell viability at time point in d-U937 cells 4 h” value is “−ve (−ve and +ve indicate that the value is below and above respectively, the no significant effect threshold, defined as 30% inhibition at 1 μg/mL at the time point indicated.)”. Besides, in data set [5], the “MTT Assay Cell viability at time point in d-U937 cells 24 h” value is “−ve (−ve and +ve indicate that the value is below and above respectively, the no significant effect threshold, defined as 30% inhibition at 1 μg/mL at the time point indicated.)”. Besides, the EC50 in data set [6] came to 8.7 nM.

`COc1ccc(-n2nc(C(C)(C)C)cc2NC(=O)Nc2ccc(Oc3ccnc(Nc4ccc5[nH]ncc5c4)n3)c3ccccc23)cc1` [Example 40, 1-(4-((2-((1H-indazol-5-yl)amino)pyrimidin-4-yl)oxy)naphthalen-1-yl)-3-(3-(tert-butyl)-1-(4-methoxyphenyl)-1H-pyrazol-5-yl)urea]: the IC50 in data set [1] was 7.2 nM; in data set [2], 8 nM; in data set [3] it was 2.4 nM; in data set [4], 68 nM. The “MTT Assay Cell viability at time point in d-U937 cells 4 h” value in data set [5] was “−ve (−ve and +ve indicate that the value is below and above respectively, the no significant effect threshold, defined as 30% inhibition at 1 μg/mL at the time point indicated.)”. Further, the “MTT Assay Cell viability at time point in d-U937 cells 24 h” value in data set [5] was “−ve (−ve and +ve indicate that the value is below and above respectively, the no significant effect threshold, defined as 30% inhibition at 1 μg/mL at the time point indicated.)”. In addition, the EC50 in data set [6] was found to be 1.5 nM.

Take `Cc1ccc(-n2nc(C(C)(C)C)cc2NC(=O)Nc2ccc(Oc3ccnc(Nc4ccc5c(c4)ncn5C)n3)c3ccccc23)cc1` [Example 4, 1-(3-(tert-Butyl)-1-(p-tolyl)-1H-pyrazol-5-yl)-3-(4-((2-((1-methyl-1H-benzo[d]imidazol-5-yl)amino)pyrimidin-4-yl)oxy)naphthalen-1-yl)urea]: the IC50 was found to be 2 nM in data set [1], 4 nM in data set [2], 2.4 nM in data set [3] and 19 nM in data set [4]. Besides, the “MTT Assay Cell viability at time point in d-U937 cells 4 h” value in data set [5] was “−ve (−ve and +ve indicate that the value is below and above respectively, the no significant effect threshold, defined as 30% inhibition at 1 μg/mL at the time point indicated.)”. The “MTT Assay Cell viability at time point in d-U937 cells 24 h” value in data set [5] was “−ve (−ve and +ve indicate that the value is below and above respectively, the no significant effect threshold, defined as 30% inhibition at 1 μg/mL at the time point indicated.)”. For the same compound, the EC50 in data set [6] stood at 2.4 nM.

With `Cc1cc(Nc2nccc(Oc3ccc(NC(=O)Nc4cc(C(C)(C)C)nn4-c4cccc(OCCN5CCOCC5)c4)c4ccccc34)n2)cc2cn[nH]c12` [Example 56, 1-(3-(tert-butyl)-1-(3-(2-morpholinoethoxy)phenyl)-1H-pyrazol-5-yl)-3-(4-((2-((7-methyl-1H-indazol-5-yl)amino)pyrimidin-4-yl)oxy)naphthalen-1-yl)urea], the 50% inhibitory concentration (IC50) in data set [1] was found to be 11 nM; in data set [2] it was 2 nM; in data set [3], 11.9 nM; in data set [4], 46 nM. In addition, the “MTT Assay Cell viability at time point in d-U937 cells 4 h” value in data set [5] was “−ve (−ve and +ve indicate that the value is below and above respectively, the no significant effect threshold, defined as 30% inhibition at 1 μg/mL at the time point indicated.)”. In data set [5], the “MTT Assay Cell viability at time point in d-U937 cells 24 h” value is “+ve (−ve and +ve indicate that the value is below and above respectively, the no significant effect threshold, defined as 30% inhibition at 1 μg/mL at the time point indicated.)”. Further, the EC50 in data set [6] stood at 4.9 nM.

`CC(C)(C)c1cc(NC(=O)Nc2ccc(Oc3ccnc(Nc4ccc5[nH]ncc5c4)n3)c3ccccc23)n(-c2ccc(OCCN3CCOCC3)cc2)n1` [Example 12, 1-(4-((2-((1H-Indazol-5-yl)amino)pyrimidin-4-yl)oxy)naphthalen-1-yl)-3-(3-(tert-butyl)-1-(4-(2-morpholinoethoxy)phenyl)-1H-pyrazol-5-yl)urea]: the IC50 came to 2 nM in data set [1], 13 nM in data set [2], 21.6 nM in data set [3] and 77 nM in data set [4]. Besides, in data set [5], the “MTT Assay Cell viability at time point in d-U937 cells 4 h” value was “−ve (−ve and +ve indicate that the value is below and above respectively, the no significant effect threshold, defined as 30% inhibition at 1 μg/mL at the time point indicated.)”. Also, in data set [5], the “MTT Assay Cell viability at time point in d-U937 cells 24 h” value was “−ve (−ve and +ve indicate that the value is below and above respectively, the no significant effect threshold, defined as 30% inhibition at 1 μg/mL at the time point indicated.)”. The EC50 in data set [6] is 1.6 nM.

For `Cc1ccc(-n2nc(C(C)(C)C)cc2NC(=O)Nc2ccc(Oc3ccnc(Nc4ccc5c(ccn5C)c4)n3)c3ccccc23)cc1` [Example 18, 1-(3-(tert-butyl)-1-(p-tolyl)-1H-pyrazol-5-yl)-3-(4-((2-((1-methyl-1H-indol-5-yl)amino)pyrimidin-4-yl)oxy)naphthalen-1-yl)urea], the IC50 was found to be 5.7 nM in data set [1], 155 nM in data set [2], 1.9 nM in data set [3] and 1360 nM in data set [4]. The “MTT Assay Cell viability at time point in d-U937 cells 4 h” value in data set [5] was “−ve (−ve and +ve indicate that the value is below and above respectively, the no significant effect threshold, defined as 30% inhibition at 1 μg/mL at the time point indicated.)”. In addition, the “MTT Assay Cell viability at time point in d-U937 cells 24 h” value in data set [5] is “−ve (−ve and +ve indicate that the value is below and above respectively, the no significant effect threshold, defined as 30% inhibition at 1 μg/mL at the time point indicated.)”. In addition, the EC50 in data set [6] is 2.8 nM.

Turning to `Cc1ccc(-n2nc(C(C)(C)C)cc2NC(=O)Nc2ccc(Oc3ccnc(Nc4ccc5[nH]cnc5c4)n3)c3ccccc23)cc1` [Example 30, 1-(4-((2-((1H-benzo[d]imidazol-5-yl)amino)pyrimidin-4-yl)oxy)naphthalen-1-yl)-3-(3-(tert-butyl)-1-(p-tolyl)-1H-pyrazol-5-yl)urea], the 50% inhibitory concentration (IC50) in data set [1] came to 7.7 nM; in data set [2], 17 nM; in data set [3] it was 4.7 nM; in data set [4], 89 nM. Further, in data set [5], the “MTT Assay Cell viability at time point in d-U937 cells 4 h” value was “−ve (−ve and +ve indicate that the value is below and above respectively, the no significant effect threshold, defined as 30% inhibition at 1 μg/mL at the time point indicated.)”. Further, the “MTT Assay Cell viability at time point in d-U937 cells 24 h” value in data set [5] was “−ve (−ve and +ve indicate that the value is below and above respectively, the no significant effect threshold, defined as 30% inhibition at 1 μg/mL at the time point indicated.)”. In addition, the EC50 in data set [6] was 1.8 nM.

With `Cc1ccc(-n2nc(C(C)(C)C)cc2NC(=O)Nc2ccc(Oc3ccnc(Nc4ccc5cn[nH]c5c4)n3)c3ccccc23)cc1` [Example 24, 1-(4-((2-((1H-indazol-6-yl)amino)pyrimidin-4-yl)oxy)naphthalen-1-yl)-3-(3-(tert-butyl)-1-(p-tolyl)-1H-pyrazol-5-yl)urea], the IC50 in data set [1] amounted to 16.9 nM; in data set [2], 102 nM; in data set [3], 2.4 nM; in data set [4] it was 245 nM. For the same compound, in data set [5], the “MTT Assay Cell viability at time point in d-U937 cells 4 h” value was “−ve (−ve and +ve indicate that the value is below and above respectively, the no significant effect threshold, defined as 30% inhibition at 1 μg/mL at the time point indicated.)”. For the same compound, the “MTT Assay Cell viability at time point in d-U937 cells 24 h” value in data set [5] is “−ve (−ve and +ve indicate that the value is below and above respectively, the no significant effect threshold, defined as 30% inhibition at 1 μg/mL at the time point indicated.)”. Further, the EC50 in data set [6] was determined as 4.7 nM.
